In patent US20150132328A1 (priority 2011, published 2015):
Like-named read-outs stand apart in the source and are kept apart here.

How the values were obtained:
[1] = tested on: Jurkat cells; conditions: peptide 10^−10M, PHA 1 μg/mL
[2] = tested on: newborn rat thymocytes; conditions: Con A 50 pg/mL
Description: It was used an octapeptide with similar weight for the elaboration of the complex, to which was just the proline (4) and Glycine (5) original amino acids were interchanged by proline (4) and Glycine (5) resulting as […].

[3] = tested on: IL-2; conditions: umbilical cord blood; PHA; cited from earlier work
[4] = tested on: human lymphocytes; conditions: for Proliferation (% with respect to the control): PHA 1 μg/mL
[5] = tested on: THP-1 cells; conditions: for Proliferation (% with respect to the control): LPS 0.5 μg/mL
Description: We proceeded to perform some related to the proliferative stimulation of the peptide in presence of other divalent cations such as magnesium, copper, and manganese.

LEDGPKFL [reference compound]
Proliferation (% with respect to the control) ([1]; [ZINC] (M) −8): 195 ± 10 %
Proliferation (% with respect to the control) ([1]; [ZINC] (M) −9): 192 ± 12 %
Proliferation (% with respect to the control) ([1]; [ZINC] (M) −10): 190 ± 10 %
Proliferation (% with respect to the control) ([1]; [ZINC] (M) −11): 135 ± 10 %
Proliferation (% with respect to the control) ([1]; [ZINC] (M) −12): 102 ± 5.2%
Proliferation (% with respect to the control) ([2]; 10^−6 (918 ng/mL)): 123.1 ± 6.1 %
Proliferation (% with respect to the control) ([2]; 10^−7 (91.8 ng/mL)): 125.6 ± 3.9 %
Proliferation (% with respect to the control) ([2]; 10^−7.5 (9.58 ng/mL)): 119.2 ± 6.1 %
Proliferation (% with respect to the control) ([2]; 10^−8 (9.18 ng/mL)): 117.3 ± 3.2 %
Proliferation (% with respect to the control) ([2]; 10^−9 (0.91 ng/mL)): 110.6 ± 7.9%
Proliferation (% with respect to the control) ([2]; 10^−10 (0.09 ng/mL)): 104.3 ± 4.8%
Proliferation (% with respect to the control) ([2]; 10^−11 (0.009 ng/mL)): 103.7 ± 5.1%
Proliferation (% with respect to the control) ([2]; 10^−12 (0.0009 ng/mL)): 104.4 ± 2.5%
Concentrations increasing IL-2 production [3]: 300 to 600 ng/mL

Zinc [reference compound]
Proliferation (% with respect to the control) ([4]; Concentration (M) −6): 96 ± 2.8%
Proliferation (% with respect to the control) ([4]; Concentration (M) −7): 99 ± 2.7%
Proliferation (% with respect to the control) ([4]; Concentration (M) −7.5): 95 ± 3.8%
Proliferation (% with respect to the control) ([4]; Concentration (M) −8): 101 ± 4.1%
Proliferation (% with respect to the control) ([4]; Concentration (M) −9): 103 ± 3.9%
Proliferation (% with respect to the control) ([4]; Concentration (M) −10): 100 ± 3.0%
Proliferation (% with respect to the control) ([4]; Concentration (M) −11): 99 ± 3.9%
Proliferation (% with respect to the control) ([4]; Concentration (M) −12): 96 ± 4.5%
Effect on proliferation ([4]; zinc ion by itself, PHA stimulated): did not modify the proliferation
Proliferation (% with respect to the control) ([5]; Concentration (M) −6): 105 ± 8.8%
Proliferation (% with respect to the control) ([5]; Concentration (M) −7): 102 ± 9.7%
Proliferation (% with respect to the control) ([5]; Concentration (M) −7.5): 104 ± 8.8%
Proliferation (% with respect to the control) ([5]; Concentration (M) −8): 102 ± 12.1%
Proliferation (% with respect to the control) ([5]; Concentration (M) −9): 103 ± 9.9%
Proliferation (% with respect to the control) ([5]; Concentration (M) −10): 100 ± 7.0%
Proliferation (% with respect to the control) ([5]; Concentration (M) −11): 101 ± 3.9%
Proliferation (% with respect to the control) ([5]; Concentration (M) −12): 98 ± 4.5%
Effect on proliferation ([5]; zinc ion by itself): did not stimulate the proliferation
